Assay results reported in US7375081B2, “Therapeutic combination of a pneumocandin derivative and an antifungal agent” (Astellas Pharma Inc., priority 1999, dated 2008).
Like-named read-outs stand apart in the source and are kept apart here.

System: clinical isolates of Aspergillus fumigatus
Test: Broth microdilution checkerboard MIC, RPMI medium (pH 7.0), drugs alone and combined
Format: cell-based
Conditions: for MIC: Aspergillus fumigatus
Experimental: The broth microdillution method using RPMI medium (pH 7.0) was used, comparing the each drug alone (Test Compound, AMPH-B, ITCZ, Nikkomycin X and 5-FC) and combined for each clinical isolates of Aspergillus fumigatus. A combination of drug concentrations was evaluated by the checkerboard method.
All tubes were examined macroscopically for growth and compared to a control (no drug). MIC was visually determined as the lowest concentration resulting in prominent decrease in turbidity compared to controls.
The Fractional Inhibitory Concentration (FIC) for each drug in mixture wells was compared to the MIC for each drug alone. The FIC index was calculated from the sum of the FICs for the two drugs. A quantitative expression of the interaction for inhibition is as follows: Synergy≦0.5; Test Result In vitro combination with Test Compound and AMPH-B against A. fumigatus

Q: What does the source list for `Nc1[nH]c(=O)ncc1F` [5-FC, flucytosine]?
A: MIC 5-FC Combination (A. fumigatus FP1990, in combination with Test Compound): 8 µg/mL; MIC (A. fumigatus FP1990, drug alone, read-out: MIC 5-FC Alone): > 32 µg/mL

Q: `C[C@@H]1[C@H](O)[C@@H](C)/C=C/C=C/C=C/C=C/C=C/C=C/C=C/[C@H](O[C@@H]2O[C@H](C)[C@@H](O)[C@H](N)[C@@H]2O)C[C@@H]2O[C@](O)(C[C@@H](O)C[C@@H](O)[C@H](O)CC[C@@H](O)C[C@@H](O)CC(=O)O[C@H]1C)C[C@H](O)[C@H]2C(=O)O` [AMPH-B, amphotericin B] was tested. Which “MIC AMPH-B Alone” value (A. fumigatus 8004, drug alone) did it give?
A: 2 µg/mL

Q: And the “MIC AMPH-B Combination” value (A. fumigatus 8004, in combination with Test Compound)?
A: 0.5 µg/mL

Q: How did the “MIC Nikkomycin X Alone” value (A. fumigatus FP1923, drug alone) turn out when `C[C@@H]([C@H](N)C(=O)N[C@H](C(=O)O)[C@H]1OC(n2cc(C=O)nc2O)[C@H](O)[C@@H]1O)[C@H](O)c1ccc(O)cn1` (stereo partly shown) [Nikkomycin X, nikkomycin X] was run?
A: 128 µg/mL

Q: What about the “MIC Nikkomycin X Combination” value (A. fumigatus FP1923, in combination with Test Compound) of the same molecule?
A: 4 µg/mL

Q: Which results are given for `CCC(C)n1ncn(-c2ccc(N3CCN(c4ccc(OCC5COC(Cn6cncn6)(c6ccc(Cl)cc6Cl)O5)cc4)CC3)cc2)c1=O` (stereo not shown) [ITCZ, itraconazole]?
A: MIC ITCZ Combination (A. fumigatus 8008, in combination with Test Compound): 0.125 µg/mL; MIC (A. fumigatus 8008, drug alone, read-out: MIC ITCZ Alone): 0.5 µg/mL

Q: How did the “MIC Test Compound Combination” value (A. fumigatus 8004, in combination with AMPH-B) turn out when `CCCCCOc1ccc(-c2cc(-c3ccc(C(=O)NC4CC(O)C(O)NC(=O)C5C(O)C(C)CN5C(=O)C(C(O)CC(N)=O)NC(=O)C(C(O)C(O)c5ccc(O)c(OS(=O)(=O)[O-])c5)NC(=O)C5CC(O)CN5C(=O)C(C(C)O)NC4=O)cc3)no2)cc1.[Na+]` (stereo not shown) [Test Compound] was run?
A: 7.8 ng/mL

Q: What about the “MIC Test Compound Combination” value (A. fumigatus 8008, in combination with ITCZ) of the same molecule?
A: 7.8 ng/mL

Q: What about the “MIC Test Compound Combination” value (A. fumigatus FP1923, in combination with Nikkomycin X) of the same molecule?
A: ≦0.001 μg/ml

Q: And the “MIC Test Compound Combination” value (A. fumigatus FP1990, in combination with 5-FC)?
A: 2 ng/mL

Q: What about the MIC (read-out: MIC Test Compound Alone, A. fumigatus 8004, drug alone) of the same molecule?
A: 0.0313 µg/mL

Q: What about the MIC (read-out: MIC Test Compound Alone, A. fumigatus 8008, drug alone) of the same molecule?
A: 0.0313 µg/mL

Q: And the MIC (read-out: MIC Test Compound Alone, A. fumigatus FP1923, drug alone)?
A: 0.0039 µg/mL

Q: What about the MIC (read-out: MIC Test Compound Alone, A. fumigatus FP1990, drug alone) of the same molecule?
A: 0.0078 µg/mL
